From patent US7982094B2, “Gene encoding lignan methylation enzyme” (Sunitory Holdings Limited, priority 2006, dated 2011) come the findings set out here.

Assay [1] relates to SrOMT1. The experiment in a line: Assay for COMT activity of SrOMT1 on caffeic acid. Conditions: 0.4 mg/ml caffeic acid, 10 mM SAM, 30° C. for an hour, HPLC and LC-MS; product ferulic acid. It counts as biochemical, Sesamum radiatum. The protocol:
(§1) The methyltransferase activity of SiOMT1 and SrOMT1 expressed in EXAMPLES 5 and 7 on caffeic acid was studied. In a reaction tube, 10 μl of 0.4 mg/ml caffeic acid, 200 μl of the crude enzyme solution of SiOMT expressed in Escherichia coli and 10 μl of 10 mM SAM were mixed, and the mixture was reacted at 30° C. for an hour.

In assay [2] the test system is SiOMT1. The experiment in a line: Assay for COMT activity of SiOMT1 on caffeic acid. Particulars: 0.4 mg/ml caffeic acid, 10 mM SAM, 30° C. for an hour, HPLC and LC-MS; product ferulic acid. In kind it is biochemical, Sesamum indicum. The protocol: as §1
Another assay concerns SiOMT2. The experiment in a line: Lignan methylation activity assay of recombinant SiOMT2 (crude enzyme from E. coli, SAM, HPLC of products). In kind it is biochemical, Sesamum indicum. Particulars: substrate solution 1 mg/ml, 10 mM SAM, 30° C. for 2 hours, HPLC at 280 nm. The protocol: (§2) Sesame lignan used as a substrate for the enzyme reaction was dissolved in a small quantity of DMSO and then in 70% ethanol to prepare the substrate solution (1 mg/ml). Sesame lignan can be produced, for example, by extracting and purifying from sesame in accordance with publicly known methods (J. Bioscience, Biotechnology and Biochemistry, 67: 1693 (1993)). After 10 μl of the substrate solution, 200 μl of the aforesaid crude enzyme solution of SiOMT expressed in Escherichia coli and 10 μl of 10 mM S-adenosyl-L-methionine (SAM) were mixed in a reaction tube, the mixture was reacted at 30° C. for 2 hours.
The enzyme reaction was terminated by adding 100% acetonitrile (250 μl) containing 0.1% trifluoroacetic acid (TFA) to the reaction tube. […] The resulting supernatant was washed through a filter (pore size of […], 4 mm Millex-LH, Millipore) and then analyzed using high performance liquid chromatography (hereinafter HPLC). […]
Liquid chromatography (Lc-2010c, Shimadzu Corporation) was performed using a C-30 column (Nomura Chemical, C30-UG-5, […]). […] Absorption was monitored at 280 nm to detect the compounds contained in a sample. The spectra between 190 nm and 400 nm for each peak of the compounds were measured using SPD-10AV (Shimadzu Corporation) to detect substances having two absorption maxima (230 nm and 280 nm) characteristic of lignans. […]

The test system of assay [3] is SrOMT1. The experiment in a line: Lignan methylation activity assay of recombinant SrOMT1 (crude enzyme from E. coli, SAM, HPLC of products). Particulars: as in EXAMPLE 6: 10 mM SAM, 30° C. for 2 hours. It counts as biochemical, Sesamum radiatum.
For assay [4], the system named is SiOMT1. The experiment in a line: Lignan methylation activity assay of recombinant SiOMT1 (crude enzyme from E. coli, SAM, HPLC/LC-MS of products). Conditions: substrate solution 1 mg/ml, 10 mM SAM, 30° C. for 2 hours, HPLC at 280 nm. In kind it is biochemical, Sesamum indicum. The protocol:
as §2
The enzyme reaction was terminated by adding 100% acetonitrile (250 μl) containing 0.1% trifluoroacetic acid (TFA) to the reaction tube. The reaction tube was vigorously agitated with a vortex mixer, followed by centrifugation at 15,000 rpm at 4° C. for 5 minutes. The resulting supernatant was washed through a filter (pore size of […], 4 mm Millex-LH, Millipore) and then analyzed using high performance liquid chromatography (hereinafter HPLC). The conditions for the analysis of lignans and methylated lignans are as follows.
Liquid chromatography (Lc-2010c, Shimadzu Corporation) was performed using a C-30 column (Nomura Chemical, C30-UG-5, […]). […] Absorption was monitored at 280 nm to detect the compounds contained in a sample. The spectra between 190 nm and 400 nm for each peak of the compounds were measured using SPD-10AV (Shimadzu Corporation) to detect substances having two absorption maxima (230 nm and 280 nm) characteristic of lignans. Under the conditions, authentic pinoresinol is detected at about 11.8 minutes, authentic piperitol at about 15.5 minutes and authentic sesaminol at about 16.8 minutes.
Next, the molecular weight of the novel lignan produced with SiOMT1 was determined by the LC-MS analysis (liquid chromatography (LC): Waters 2795 (Waters Inc.), mass spectrograph: QUATRO micro (MICROMASS, Inc.)). […]
Under the conditions, peak A is detected at about 8.3 minutes and peak B at about 11.3 minutes (FIGS. 3-5). […]

As for `O=C(O)/C=C/c1ccc(O)c(O)c1` [caffeic acid], the “methyltransferase (COMT) activity of SrOMT1 on caffeic acid” value with SrOMT1 [1] is listed as “had the COMT activity”. Moreover, in the assay on SiOMT1 [2], the “methyltransferase (COMT) activity of SiOMT1 on caffeic acid” value is on record as “had the COMT activity”.
Consider `COc1cc([C@@H]2OC[C@@H]3[C@H]2CO[C@H]3c2ccc3c(c2)OCO3)ccc1O` [piperitol], for which, in the assay on SiOMT2, the “methylation of the substrate by SiOMT2 (lignan methylation activity)” value is listed as “any new product was not detected”. Moreover, the “methylation of the substrate by SrOMT1 (lignan methylation activity)” value with SrOMT1 [3] was “exhibited the methylation activity”. The “methylation of the substrate by SiOMT1 (lignan methylation activity)” value (“methylation of the substrate by SiOMT1” for short) in the assay on SiOMT1 [4] is given as “having the monomethylation activity”.
In the case of `Oc1cc2c(cc1[C@H]1OC[C@H]3[C@@H]1CO[C@@H]3c1ccc3c(c1)OCO3)OCO2` [sesaminol], in the assay with SiOMT1 [4], the “methylation of the substrate by SiOMT1” value was “did not show any methylation activity”.
For pinoresinol, the “methylation of the substrate by SiOMT2 (lignan methylation activity)” value in the assay on SiOMT2 is given as “any new product was not detected”. Moreover, the “methylation of the substrate by SrOMT1 (lignan methylation activity)” value in the assay on SrOMT1 [3] is “exhibited the methylation activity”. Further, the “methylation of the substrate by SiOMT1” value in the assay on SiOMT1 [4] is given as “having the monomethylation activity”.
